From patent US20120329879A1, “BETA-ADRENERGIC RECEPTOR AGONISTS AND USES THEREOF” (THE UNIVERSITY OF TENNESSEE RESEARCH FOUNDATION, priority 2010, published 2012)
“Also recorded” adds a separate entry of the source.

What was measured:
[1] = Body weight, blood glucose, blood pressure and intraocular pressure in streptozotocin diabetic rats on eye drop therapy; format: in vivo, rat
Protocol: Male Lewis rats purchased from Charles River were used. Diabetic rats received a single injection of 60 mg/kg streptozotocin (Fisher, Pittsburgh, Pa.). […] All rats were weighed weekly and only rats with non-fasting blood glucose levels >250 mg/dl were considered diabetic. The designation of diabetic was made at the beginning of the experiments. Glucose was measured bimonthly. No insulin was administered to the rats at any time. To determine whether topical application of Compound 2 could reach the retina and elicit response, dose and time course studies were performed. For those studies, animals were made diabetic for 2 months using STZ. For 4 days, rats received a variety of doses of either Compound 2 (1 mM to 20 mM) or PBS once or twice each day. After the 4 days of eye drop treatment to both eyes, the diabetic and control animals were euthanized. […] After determining the optimal dose and time course for eye drop treatment for Compound 2, three groups of rats were used for this part of the study (control, diabetic (Diabetic), and diabetic+eye drop (Diab+2). Within 1 week of STZ-injection, 12 rats were put onto eye drop therapy. Rats on the eye drop therapy received a daily application of 4 drops of 1 mM Compound 2 to each eye. To verify that insulin levels were lost in the diabetic animals, insulin ELISA (Rat/Mouse Insulin ELISA kit, Linco, St. Charles, Mo.) was done on blood sampled from all rats at 2 months of age. Rats were sacrificed at 2 or 8 months of age. […] Analyses on the rats were done for acute changes (8 weeks of diabetes, 45 rats) and chronic changes (8 months of diabetes, 45 rats). […] Each month, all rats were tested for visual function: electroretinogram (ERG) and live retinal imaging were performed using Optical Coherence Topography (OCT). […] While the animals were asleep for ERG analyses, blood pressure and pulse were monitored to detect potential negative cardiovascular events.

retina of diabetic rats = assay: Assessment of retinal thinning and loss of cells in ganglion cell layer; format: in vivo, rat
Description: Assessment of retinal thinning and loss of cells in ganglion cell layer Formalin-fixed paraffin sections were stained with toluidine blue for light microscopy and morphometry of retinal thickness (8). Pictures were taken at four locations in the retina (both sides of the optic nerve and mid-retina) at 400×. The nuclei in the retinal ganglion cell layer (GCL) were counted in a […] section of each picture, and the thickness of the inner retina (from the top of the inner nuclear layer to the inner limiting membrane) was assessed using a Retiga camera attached to a Nikon Biophot light microscope with Qcapture software (Qlmaging, Burbay, BC, Canada). Retinal thickness and number of cells in the ganglion cell layer were measured using OpenLab software (Improvision, Lexington, Mass.). Retinal thickness and live retinal imaging were assessed using rodent OCT. Each layer of the retina was examined multiple times on the same animal in a non-invasive way to determine changing in specific regions over the course of the experiment. […] Light microscopy was used for histological examination of neuronal changes, which often occur in the acute phases. Formalin-fixed paraffin sections were stained with toluidine blue for light microscopy and morphometry of retinal thickness. Pictures were taken at four locations in the retina (both sides of the optic nerve and mid-retina) at 400×. The nuclei in the retinal ganglion cell layer (GCL) were counted in a 100 μm section of each picture. The thickness of the inner retina from the top of the inner nuclear layer to the inner limiting membrane was assessed using a Retiga camera attached to a Nikon Biophot light microscope with Qcapture software (Qlmaging, Burbay, BC, Canada). Retinal thickness and number of cells in the retinal ganglion cell layer were measured using OpenLab software (Improvision, Lexington, Mass.). Unpaired T-tests were used to compare data from control, diabetic, and diabetic+eye drop treated animals, with P<0.05 being accepted as significant.

Akt (Ser 473) = assay: Western blot of phosphorylated Akt to total Akt in rat retina; format: in vivo; details: diabetic rats, daily 1 mM, retinal lysates
Description: The other eye from each animal was used for protein analyses for inflammatory markers and insulin receptor signaling. Western blotting was done as described (9). Antibodies used were total insulin receptor beta (1:500, Cellular Signaling, Danvers, Mass.), phosphorylated insulin receptor beta (Tyr 1150/1151, 1:500, Cellular Signaling, Danvers, Mass.), total Akt (1:500, Cellular Signaling, Danvers, Mass.), and phosphorylated Akt (Ser 473, 1:500, Cellular Signaling, Danvers, Mass.). For analyses of the data, mean densitometry values were obtained using the Kodak 2.0 software. The ratio of phosphorylated protein was compared to levels of total protein.

Rat Müller cells (rMC-1) = assay: TNFalpha and cleaved caspase 3 ELISA in Müller cells cultured in high glucose; format: cell-based
Protocol: Human retinal endothelial cells (HREC) were purchased from Cell Systems (Kirkland, Wash.) and grown in either basal (5 mM glucose) or growth (25 mM glucose) media. Both media is supplemented with 10% FBS and antibiotics. The day prior to experiments, cells are serum-starved for 18-24 hours. Rat Müller cells (rMC-1) were grown in DMEM medium with 5 mM glucose or 25 mM glucose. Media was supplemented with 10% FBS and antibiotics. Cells were serum starved prior to all experiments for 18-24 hours.
Human retinal endothelial cells (HREC) and rat Muller cells (rMC-1) in both glucose conditions were treated with Compound 2 at doses of 10 nM, 50 nM, 100 nM, 1 μM, and 10 μM of Compound 2. Cells of each type were grown in medium containing L-glucose to control for changes in osmolarity. 10 μM isoproterenol was also used for each condition as a positive control. Müller cells were treated for 1 hour and 24 hours, while HREC were treated for 30 and 60 minutes.
Following treatment, cells were collected into lysis buffer containing protease and phosphatase inhibitors. ELISA analyses for TNFalpha, cleaved caspase 3, and PKA were done according to manufacturers instructions. Data is compared against non-treated cells and cells at the various doses. A Kruskal-Wallis test is done, with a Dunn's test for secondary analyses. […] The dose that decreases TNFalpha and caspase 3 levels also increases PKA activity.

left ventricle = assay: Heart left ventricle sections and collagen staining in type I diabetic rats; format: in vivo, rat; details: type I diabetic rats treated daily with 1 mM
Description: Staining is for collagen intensity (FIG. 11B), which is increased in diabetes. Analyses on the rats were done for acute changes (8 weeks of diabetes, 45 rats) and chronic changes (8 months of diabetes, 45 rats). In addition to all measurements on the retina, tissue sections of the heart were taken at 8 weeks and 8 months to insure that there is no hypertrophy of the ventricles due to the drug. A Western blot for myosin light chain, a surrogate marker of cardiovascular hypertrophy was also performed. Each month, all rats receive 2 analyses of visual function, electroretinogram (ERG) and live retinal imaging using Optical Coherence […] (OCT). Retinal thickness and live retinal imaging were assessed using rodent OCT. This technology allows for non-invasive visualization of each layer of the retina for multiple testing of the same animal.

[2] = diabetic rats, daily 1 mM Compound 2 eye drops, in mmHg (unit assumed)
[3] = following Compound 2 treatment, in words
[4] = delayed treatment: 6 month diabetic rats, Compound 2 for 2 months
[5] = diabetic rats, 1 mM eye drops as preventative, central retina, hydrochloride
[6] = Müller cells in high glucose, 50 nM

With `COc1cc(CCNC[C@H](O)c2ccc(O)c(O)c2)cc(OC)c1OC.Cl` (single isomer, unassigned) [Compound 2, 4-[1-hydroxy-2-(1-ethylamino-3-,4-,5-trimethoxyphenyl)ethyl]benzene-1,2-diol hydrochloride] the “effect on body weight” value ([1]; daily administration of 1 mM, in words) was “did not affect”, the Body wt ([1]; diabetic rats, daily 1 mM Compound 2 eye drops) was 248.7 ± 8.3 g and the “BP Systolic” value [1, 2] was 104.8 ± 13.7. The IOP [1, 2] was 8.08 ± 1.17, the “effect on blood pressure” value [1, 3] was “no observed effect” and the “effect on intraocular pressure” value [1, 3] was “no observed effect”. The “increase in retinal thickness over diabetic rats alone” value (retina of diabetic rats; [4]) was ~50%, the “loss of cells in the ganglion cell layer, delayed treatment” value (retina of diabetic rats; [4]) was “no loss of cells in the ganglion cell layer” and the inner retinal thickness (retina of diabetic rats; [5]) was “loss of inner retinal thickness was prevented; also recorded: maintains the retinal thickness”. For the same compound, the “number of cells in the ganglion cell layer” value (retina of diabetic rats; [5]) was “prevented in the Compound 2-treated animals; also recorded: maintains the retinal thickness and cell number”, the “loss of retinal thickness and apoptosis of cells of the ganglion cell layer” value (retina of diabetic rats; diabetic rats, 50 mM eye drops 1 time each day for 8 months) was “effective in preventing the loss of retinal thickness and apoptosis of cells of the ganglion cell layer” and the “ratio of phosphorylated Akt to total Akt” value (Akt (Ser 473)) was “maintained the ratio of phosphorylated Akt at levels similar to control values”. For the same compound, the “reduction of TNFalpha levels compared to not-treated cells” value (Rat Müller cells (rMC-1); [6]) was 19%, the “reduction of caspase 3 compared to not-treated cells” value (Rat Müller cells (rMC-1); [6]) was 55% and the “TNFalpha levels, in words” value (Rat Müller cells (rMC-1); Müller cells in high glucose, 50 nM, vs non-treated) was “significantly reduced”. The “cleaved caspase 3 levels, in words” value (Rat Müller cells (rMC-1); Müller cells in high glucose, 50 nM, vs non-treated, hydrochloride) was “significantly decreased caspase 3 levels in Müller cells at the 24-hour time point; also recorded: significantly reduced levels of cleaved caspase 3”, the “dose for blockade of apoptosis and TNFalpha activity compared with isoproterenol” value (Rat Müller cells (rMC-1); Müller cells, 50 nM Compound 2 vs. 10 μM isoproterenol) was “significantly lower dose” and the “left ventricle compared to untreated diabetic rats” value (left ventricle) was “no difference in the left ventricle”.
